Measurements published in patent US20250064941A1, “SIGLEC LIGANDS, CONJUGATES, AND METHODS OF USE THEREOF” (Osprey Biopharmaceuticals, Inc., priority 2023, published 2025).

What was measured:
cynomolgus Siglec-2/CD22 = cynomolgus Siglec-2/CD22 (Macaca fascicularis, UniProt A0A2K5WCZ6); experiment: biochemical; format: binding; settings: SPR, steady-state analysis; read-out: Affinity cyno CD22
How it was run: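 Compound binding measured by steady-state SPR analysis, 120 s dissociation, in HEPES-NaCl-Tween buffer pH 7.5 containing 1% DMSO, DMSO solvent-corrected. Surface: cyno CD22, sialic acids first stripped by SialoExo for 4 h at 37° C., then amine-coupled onto CM5.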

[1] = biological target: T1, mouse Siglec-2-Fc-Avi (CD22) (Mus musculus, UniProt P35329); experiment: SPR binding affinity to mouse CD22; settings: steady-state analysis
T1 construct: made in house
T1 sequence (P35329 22-708 limits assumed): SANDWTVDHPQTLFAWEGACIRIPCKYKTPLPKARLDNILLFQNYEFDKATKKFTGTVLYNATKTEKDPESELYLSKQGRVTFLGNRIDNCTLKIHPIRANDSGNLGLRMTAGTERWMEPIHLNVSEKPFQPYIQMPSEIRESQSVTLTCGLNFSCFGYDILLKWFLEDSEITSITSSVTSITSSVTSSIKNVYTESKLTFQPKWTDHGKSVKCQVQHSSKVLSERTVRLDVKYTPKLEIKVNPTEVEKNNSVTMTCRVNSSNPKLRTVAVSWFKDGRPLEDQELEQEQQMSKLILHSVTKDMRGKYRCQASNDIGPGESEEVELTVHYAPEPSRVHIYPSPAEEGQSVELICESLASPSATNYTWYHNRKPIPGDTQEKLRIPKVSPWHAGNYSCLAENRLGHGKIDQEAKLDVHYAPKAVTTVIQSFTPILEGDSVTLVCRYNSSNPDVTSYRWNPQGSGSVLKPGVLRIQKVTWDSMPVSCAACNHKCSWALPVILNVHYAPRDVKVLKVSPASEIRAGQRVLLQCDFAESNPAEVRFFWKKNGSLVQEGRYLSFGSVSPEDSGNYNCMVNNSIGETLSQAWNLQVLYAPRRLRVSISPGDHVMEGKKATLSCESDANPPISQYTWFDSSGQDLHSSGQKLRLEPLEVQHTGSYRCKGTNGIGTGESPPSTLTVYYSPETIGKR
How it was run: (§1)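 Native sialic acid residues are removed from the receptor enzymatically (4 hours at 37° C.) prior to streptavidin capture of the biotinylated protein. Ligand compounds then flow over in HEPES-buffered saline, pH 7.5, containing 0.05% Tween-20 and 1% DMSO, and binding is evaluated at steady state.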

[2] = biological target: T2, human Siglec-2/CD22 protein (Homo sapiens, UniProt P20273); experiment: SPR binding affinity to human CD22; settings: steady-state analysis
T2 construct: purchased Acro Biosystems SI2-H82E3
T2 sequence (P20273 20-847): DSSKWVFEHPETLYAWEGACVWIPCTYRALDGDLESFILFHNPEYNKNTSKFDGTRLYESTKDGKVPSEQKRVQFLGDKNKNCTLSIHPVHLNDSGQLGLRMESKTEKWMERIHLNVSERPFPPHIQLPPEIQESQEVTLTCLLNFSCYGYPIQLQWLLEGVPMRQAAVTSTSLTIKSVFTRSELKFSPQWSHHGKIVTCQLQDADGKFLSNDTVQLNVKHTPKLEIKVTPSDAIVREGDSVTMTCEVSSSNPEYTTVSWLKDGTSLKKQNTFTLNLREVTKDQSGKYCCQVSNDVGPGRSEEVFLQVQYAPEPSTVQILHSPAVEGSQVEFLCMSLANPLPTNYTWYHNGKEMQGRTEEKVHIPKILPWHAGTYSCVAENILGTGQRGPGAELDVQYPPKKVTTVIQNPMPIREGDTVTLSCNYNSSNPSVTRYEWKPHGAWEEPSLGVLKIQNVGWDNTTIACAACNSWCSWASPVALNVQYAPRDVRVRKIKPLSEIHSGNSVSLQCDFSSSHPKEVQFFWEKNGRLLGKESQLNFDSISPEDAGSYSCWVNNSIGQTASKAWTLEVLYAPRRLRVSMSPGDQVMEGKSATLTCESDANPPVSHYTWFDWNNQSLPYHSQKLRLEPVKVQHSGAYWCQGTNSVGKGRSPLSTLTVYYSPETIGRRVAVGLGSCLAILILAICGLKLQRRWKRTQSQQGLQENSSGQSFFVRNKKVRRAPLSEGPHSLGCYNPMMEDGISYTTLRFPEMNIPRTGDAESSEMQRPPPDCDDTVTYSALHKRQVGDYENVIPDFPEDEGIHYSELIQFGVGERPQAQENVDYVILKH
How it was run: as §1

Chain of cynomolgus Siglec-2/CD22 (A0A2K5WCZ6 entry or part of it): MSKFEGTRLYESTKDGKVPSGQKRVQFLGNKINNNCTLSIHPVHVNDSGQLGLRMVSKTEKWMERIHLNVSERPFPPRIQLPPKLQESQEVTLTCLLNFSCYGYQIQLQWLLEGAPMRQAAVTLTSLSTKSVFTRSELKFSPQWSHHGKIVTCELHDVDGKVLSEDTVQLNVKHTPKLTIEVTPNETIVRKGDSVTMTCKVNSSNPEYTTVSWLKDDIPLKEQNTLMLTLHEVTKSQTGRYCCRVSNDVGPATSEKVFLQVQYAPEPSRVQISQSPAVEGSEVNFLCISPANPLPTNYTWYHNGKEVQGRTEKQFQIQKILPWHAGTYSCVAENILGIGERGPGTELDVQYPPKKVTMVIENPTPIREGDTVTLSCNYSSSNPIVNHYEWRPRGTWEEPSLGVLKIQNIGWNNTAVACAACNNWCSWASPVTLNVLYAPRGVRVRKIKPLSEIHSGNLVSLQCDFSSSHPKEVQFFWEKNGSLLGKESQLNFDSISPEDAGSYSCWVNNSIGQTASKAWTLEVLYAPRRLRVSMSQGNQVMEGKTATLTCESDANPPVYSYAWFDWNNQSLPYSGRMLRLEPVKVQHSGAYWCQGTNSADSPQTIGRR

Compound	Kd (cynomolgus Siglec-2/CD22)	Kd [1]	Kd [2]
C#CCOCCCCCCO[C@]1(C(=O)O)C[C@H](O)[C@@H](NC(=O)NCCO)[C@H]([C@H](O)[C@H](O)CNC(=O)Cc2ccc(Cl)cc2)O1 [Compound 185, (2R,4S,5R,6R)-6-((1R,2R)-3-(2-(4-chlorophenyl)acetamido)-1,2-dihydroxypropyl)-4-hydroxy-5-(3-(2-hydroxyethyl)ureido)-2-((6-(prop-2-yn-1-yloxy)hexyl)oxy)tetrahydro-2H-pyran-2-carboxylic acid]	< 1000 nM	1000 to 10000 nM	1000 to 10000 nM
C#CCOCCCCCCS[C@]1(C(=O)O)C[C@H](O)[C@@H](NC(=O)CO)[C@H]([C@H](O)[C@H](O)CNC(=O)Cc2ccc(Cl)cc2)O1 [Compound 186, (2S,4S,5R,6R)-6-((1R,2R)-3-(2-(4-chlorophenyl)acetamido)-1,2-dihydroxypropyl)-4-hydroxy-5-(2-hydroxyacetamido)-2-((6-(prop-2-yn-1-yloxy)hexyl)thio)tetrahydro-2H-pyran-2-carboxylic acid]	< 1000 nM	< 1000 nM	< 1000 nM
C#CCNC(=O)c1ccc(CS[C@]2(C(=O)O)C[C@H](O)[C@@H](NC(=O)CO)[C@H]([C@H](O)[C@H](O)CNC(=O)Cc3ccc(Cl)cc3)O2)cc1 [Compound 187, (2S,4S,5R,6R)-6-((1R,2R)-3-(2-(4-chlorophenyl)acetamido)-1,2-dihydroxypropyl)-4-hydroxy-5-(2-hydroxyacetamido)-2-((4-(prop-2-yn-1-ylcarbamoyl)benzyl)thio)tetrahydro-2H-pyran-2-carboxylic acid]	< 1000 nM	< 1000 nM	< 1000 nM
C#CCOCCCCCCO[C@]1(C(=O)O)C[C@H](O)[C@@H](NC(=O)C(=O)Nc2ccccc2)[C@H]([C@H](O)[C@H](O)CNC(=O)Cc2ccc(Cl)cc2)O1 [Compound 188, (2R,4S,5R,6R)-6-((1R,2R)-3-(2-(4-chlorophenyl)acetamido)-1,2-dihydroxypropyl)-4-hydroxy-5-(2-oxo-2-(phenylamino)acetamido)-2-((6-(prop-2-yn-1-yloxy)hexyl)oxy)tetrahydro-2H-pyran-2-carboxylic acid]	< 1000 nM	1000 to 10000 nM	< 1000 nM
C#CCOCCCCCCO[C@]1(C(=O)O)C[C@H](O)[C@@H](NC(=O)C(=O)NC)[C@H]([C@H](O)[C@H](O)CNC(=O)Cc2ccc(Cl)cc2)O1 [Compound 189, (2R,4S,5R,6R)-6-((1R,2R)-3-(2-(4-chlorophenyl)acetamido)-1,2-dihydroxypropyl)-4-hydroxy-5-(2-(methylamino)-2-oxoacetamido)-2-((6-(prop-2-yn-1-yloxy)hexyl)oxy)tetrahydro-2H-pyran-2-carboxylic acid]	< 1000 nM	1000 to 10000 nM	1000 to 10000 nM
C#CCOCCCCCCO[C@]1(C(=O)O)C[C@H](O)[C@@H](Nc2c(N)c(=O)c2=O)[C@H]([C@H](O)[C@H](O)CNC(=O)Cc2ccc(Cl)cc2)O1 [Compound 190, (2R,4S,5R,6R)-5-((2-amino-3,4-dioxocyclobut-1-en-1-yl)amino)-6-((1R,2R)-3-(2-(4-chlorophenyl)acetamido)-1,2-dihydroxypropyl)-4-hydroxy-2-((6-(prop-2-yn-1-yloxy)hexyl)oxy)tetrahydro-2H-pyran-2-carboxylic acid]	< 1000 nM	1000 to 10000 nM	< 1000 nM
C#CCOCCCCCCO[C@]1(C(=O)O)C[C@H](O)[C@@H](NC(=O)COC)[C@H]([C@H](O)[C@H](O)CNC(=O)Cc2ccc(Cl)cc2)O1 [Compound 192, (2R,4S,5R,6R)-6-((1R,2R)-3-(2-(4-chlorophenyl)acetamido)-1,2-dihydroxypropyl)-4-hydroxy-5-(2-methoxyacetamido)-2-((6-(prop-2-yn-1-yloxy)hexyl)oxy)tetrahydro-2H-pyran-2-carboxylic acid]	1000 to 10000 nM	> 10000 nM	1000 to 10000 nM
C#CCOCCCCCCO[C@]1(C(=O)O)C[C@H](O)[C@@H](NC(=O)NCC(F)(F)F)[C@H]([C@H](O)[C@H](O)CNC(=O)Cc2ccc(Cl)cc2)O1 [Compound 193, (2R,4S,5R,6R)-6-((1R,2R)-3-(2-(4-chlorophenyl)acetamido)-1,2-dihydroxypropyl)-4-hydroxy-2-((6-(prop-2-yn-1-yloxy)hexyl)oxy)-5-(3-(2,2,2-trifluoroethyl)ureido)tetrahydro-2H-pyran-2-carboxylic acid]	1000 to 10000 nM	1000 to 10000 nM	1000 to 10000 nM
O=C(Cc1ccc(Cl)cc1)NC[C@@H](O)[C@@H](O)[C@@H]1O[C@@](SCc2ccc(C(=O)O)cc2)(C(=O)O)C[C@H](O)[C@H]1NC(=O)CO [Compound 195, (2S,4S,5R,6R)-2-((4-carboxybenzyl)thio)-6-((1R,2R)-3-(2-(4-chlorophenyl)acetamido)-1,2-dihydroxypropyl)-4-hydroxy-5-(2-hydroxyacetamido)tetrahydro-2H-pyran-2-carboxylic acid]	< 1000 nM	< 1000 nM	< 1000 nM
C#CCOCCOCCO[C@]1(C(=O)O)C[C@H](O)[C@@H](NC(=O)CO)[C@H]([C@H](O)[C@H](O)CNC(=O)Cc2ccc3[nH]ccc3c2)O1 [Compound 196, (2R,4S,5R,6R)-6-((1R,2R)-3-(2-(1H-indol-5-yl)acetamido)-1,2-dihydroxypropyl)-4-hydroxy-5-(2-hydroxyacetamido)-2-(2-(2-(prop-2-yn-1-yloxy)ethoxy)ethoxy)tetrahydro-2H-pyran-2-carboxylic acid]	< 1000 nM	1000 to 10000 nM	< 1000 nM
C#CCOCCOCCO[C@]1(C(=O)O)C[C@H](O)[C@@H](NC(=O)CO)[C@H]([C@H](O)[C@H](O)CNC(=O)Cc2ccc(O)c(Cl)c2)O1 [Compound 197, (2R,4S,5R,6R)-6-((1R,2R)-3-(2-(3-chloro-4-hydroxyphenyl)acetamido)-1,2-dihydroxypropyl)-4-hydroxy-5-(2-hydroxyacetamido)-2-(2-(2-(prop-2-yn-1-yloxy)ethoxy)ethoxy)tetrahydro-2H-pyran-2-carboxylic acid]	> 10000 nM	> 10000 nM	> 10000 nM
C#CCOCCOCCO[C@]1(C(=O)O)C[C@H](O)[C@@H](NC(=O)CO)[C@H]([C@H](O)[C@H](O)CNC(=O)c2ccc(O)cc2)O1 [Compound 198, (2R,4S,5R,6R)-6-((1R,2R)-1,2-dihydroxy-3-(4-hydroxybenzamido)propyl)-4-hydroxy-5-(2-hydroxyacetamido)-2-(2-(2-(prop-2-yn-1-yloxy)ethoxy)ethoxy)tetrahydro-2H-pyran-2-carboxylic acid]	> 10000 nM	> 10000 nM	> 10000 nM
C#CCOCCOCCO[C@]1(C(=O)O)C[C@H](O)[C@@H](NC(=O)NCC(F)(F)F)[C@H]([C@H](O)[C@H](O)CNC(=O)Cc2ccc(-c3ccc(O)cc3)cc2)O1 [Compound 199, (2R,4S,5R,6R)-6-((1R,2R)-1,2-dihydroxy-3-(2-(4′-hydroxy-[1,1′-biphenyl]-4-yl)acetamido)propyl)-4-hydroxy-2-(2-(2-(prop-2-yn-1-yloxy)ethoxy)ethoxy)-5-(3-(2,2,2-trifluoroethyl)ureido)tetrahydro-2H-pyran-2-carboxylic acid]	> 10000 nM	> 10000 nM	> 10000 nM
